The values that follow come from patent US20220372017A1, “HCK DEGRADERS AND USES THEREOF” (DANA-FARBER CANCER INSTITUTE, INC., priority 2019, published 2022).

Holding throughout (assay type): cell-based
Assay [1] concerns the target T1, HCK (Homo sapiens, UniProt P08631).
T1 construct: following treatment of MYD88 mutated BCWM.1 cells; endogenous in cells; host or cells: BCWM.1 WM cells (parental and vector/BTK-WT/BTK-C481S transduced); TMD8 ABC-DLBCL cells (transduced)
The assay can be described thus: Western blot protein degradation assessment, HCK. The method, then: (§1) SK-6-1 was used as a degrader control compound.
(§2) SK-6-1 was used as a degrader control compound. […] “ABC-DLBCL” is activated B-cell (ABC) lymphoma, diffuse large B-cell lymphoma (DLBCL).
(§3) Western blots were performed for the detection of protein degradation following the cell treatments with HCK degraders using antibodies for HCK (Cell Signaling), BTK (Cell Signaling) or Phospho-BTK (Tyr223) (Abcam). GAPDH was used for determination of protein loading.
(In western blotting, separated proteins are transferred to a membrane and probed.)

Assay [2] concerns the target T2, BTK (Homo sapiens, UniProt Q06187).
T2 construct: following treatment of MYD88 mutated BCWM.1 cells; endogenous in cells
The experiment in a line: Western blot protein degradation assessment, BTK. The settings on record: MYD88 mutated BCWM.1 cells, 6 hours, Western blot (FIG. 4). The method, then:
as §1, §2, §3

In assay [3] the target is T3, FYN (Homo sapiens, UniProt P06241).
T3 construct: proteomics data on the degradation of target kinases in cell line MOLT4; endogenous in cells; host or cells: MOLT4
The experiment in a line: Proteomics, degradation of target kinases in MOLT4 cells: FYN. The settings on record: cell line MOLT4 (FIGS. 7A-7B). The text has this:
(§4) FIGS. 7A-7B show proteomics data on the degradation of target kinases in cell line MOLT4 (human T lymphoblast; acute lymphoblastic leukemia) using treatment with exemplary compounds SB1-G-181 and SB1-G-200. FIG. 7A indicates in the bottom left corner the exemplary kinase targets (FYN, SRC, BLK, LCK, CSK, ABL1, ABL2, LIMK1, LATS1) in cell line MOLT4 which were degraded by exemplary compound SB1-G-181. FIG. 7B indicates in the bottom left corner the exemplary kinase targets (FYN, SRC, BLK, LCK, CSK, ABL1, ABL2, LIMK1, LATS1) in cell line MOLT4 which were degraded by exemplary compound SB1-G-200.

In assay [4] the target is T4, SRC (Homo sapiens, UniProt P12931).
T4 construct: proteomics data on the degradation of target kinases in cell line MOLT4; endogenous in cells; host or cells: MOLT4
The assay can be described thus: Proteomics, degradation of target kinases in MOLT4 cells: SRC. Particulars: cell line MOLT4 (FIGS. 7A-7B).
Text: as §4

Assay [5] deals with T5, BLK (Homo sapiens, UniProt P51451).
T5 construct: proteomics data on the degradation of target kinases in cell line MOLT4; endogenous in cells; host or cells: MOLT4
The experiment in a line: Proteomics, degradation of target kinases in MOLT4 cells: BLK. Particulars: cell line MOLT4 (FIGS. 7A-7B).
Text: as §4

Assay [6] addresses T6, LCK (Homo sapiens, UniProt P06239).
T6 construct: proteomics data on the degradation of target kinases in cell line MOLT4; endogenous in cells; host or cells: MOLT4
The experiment in a line: Proteomics, degradation of target kinases in MOLT4 cells: LCK. The settings on record: cell line MOLT4 (FIGS. 7A-7B).
Text: as §4

Assay [7] concerns the target T7, CSK (Homo sapiens, UniProt P41240).
T7 construct: proteomics data on the degradation of target kinases in cell line MOLT4; endogenous in cells; host or cells: MOLT4
The experiment in a line: Proteomics, degradation of target kinases in MOLT4 cells: CSK. The settings on record: cell line MOLT4 (FIGS. 7A-7B).
Text: as §4

Assay [8] addresses T8, ABL1 (Homo sapiens, UniProt P00519).
T8 construct: proteomics data on the degradation of target kinases in cell line MOLT4; endogenous in cells; host or cells: MOLT4
The experiment in a line: Proteomics, degradation of target kinases in MOLT4 cells: ABL1. Particulars: cell line MOLT4 (FIGS. 7A-7B).
Text: as §4

Assay [9] addresses T9, ABL2 (Homo sapiens, UniProt P42684).
T9 construct: proteomics data on the degradation of target kinases in cell line MOLT4; endogenous in cells; host or cells: MOLT4
The assay can be described thus: Proteomics, degradation of target kinases in MOLT4 cells: ABL2. Particulars: cell line MOLT4 (FIGS. 7A-7B).
Text: as §4

In assay [10] the target is T10, LIMK1 (Homo sapiens, UniProt P53667).
T10 construct: proteomics data on the degradation of target kinases in cell line MOLT4; endogenous in cells; host or cells: MOLT4
The assay can be described thus: Proteomics, degradation of target kinases in MOLT4 cells: LIMK1. The settings on record: cell line MOLT4 (FIGS. 7A-7B).
Text: as §4

The target in assay [11] is T11, LATS1 (Homo sapiens, UniProt O95835).
T11 construct: proteomics data on the degradation of target kinases in cell line MOLT4; endogenous in cells; host or cells: MOLT4
T11 sequence (O95835 1-1130): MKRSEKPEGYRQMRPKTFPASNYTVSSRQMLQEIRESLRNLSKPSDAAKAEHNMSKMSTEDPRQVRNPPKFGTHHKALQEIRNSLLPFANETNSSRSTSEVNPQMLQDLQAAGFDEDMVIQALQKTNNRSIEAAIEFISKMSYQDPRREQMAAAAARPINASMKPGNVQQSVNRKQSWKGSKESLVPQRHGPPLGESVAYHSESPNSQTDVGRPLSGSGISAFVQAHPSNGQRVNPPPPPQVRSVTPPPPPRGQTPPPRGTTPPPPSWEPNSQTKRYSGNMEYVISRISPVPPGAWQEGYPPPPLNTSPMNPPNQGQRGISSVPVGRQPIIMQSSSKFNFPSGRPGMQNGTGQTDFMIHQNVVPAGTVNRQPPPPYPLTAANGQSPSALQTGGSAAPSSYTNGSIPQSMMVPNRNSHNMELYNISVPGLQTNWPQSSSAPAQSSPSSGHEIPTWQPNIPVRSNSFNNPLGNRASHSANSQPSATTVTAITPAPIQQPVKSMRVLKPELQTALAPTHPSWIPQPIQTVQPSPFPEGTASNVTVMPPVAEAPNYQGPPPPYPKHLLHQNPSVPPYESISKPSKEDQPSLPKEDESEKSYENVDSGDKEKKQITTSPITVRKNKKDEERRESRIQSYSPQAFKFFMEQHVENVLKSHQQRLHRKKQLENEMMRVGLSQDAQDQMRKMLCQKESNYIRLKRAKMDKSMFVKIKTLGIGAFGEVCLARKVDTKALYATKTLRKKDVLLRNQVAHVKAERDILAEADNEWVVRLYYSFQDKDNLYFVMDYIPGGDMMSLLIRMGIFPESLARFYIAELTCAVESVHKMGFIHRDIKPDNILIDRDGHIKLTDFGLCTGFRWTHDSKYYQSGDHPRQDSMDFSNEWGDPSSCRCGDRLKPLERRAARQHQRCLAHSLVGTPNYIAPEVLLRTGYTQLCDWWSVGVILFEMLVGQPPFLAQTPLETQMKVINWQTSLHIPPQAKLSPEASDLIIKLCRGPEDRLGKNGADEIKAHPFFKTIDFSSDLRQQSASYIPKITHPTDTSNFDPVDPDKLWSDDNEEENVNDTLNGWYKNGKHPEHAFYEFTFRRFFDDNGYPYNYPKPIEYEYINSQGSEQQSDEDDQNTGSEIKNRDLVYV
The experiment in a line: Proteomics, degradation of target kinases in MOLT4 cells: LATS1. Particulars: cell line MOLT4 (FIGS. 7A-7B).
Text: as §4

Assay [12] concerns the target T12, BTK (Homo sapiens, UniProt Q06187, C481S).
T12 construct: following treatment of MYD88 mutated BCWM.1 cells; endogenous in cells
The assay can be described thus: Western blot protein degradation assessment, BTK. The settings on record: BTK^C481S mutant transduced BCWM.1 WM cells, 6 hours (FIG. 5). The method, then:
as §1, §2, §3

Assay [13] relates to BTK. The experiment in a line: Western blot protein degradation assessment, BTK. Particulars: vector only, BTK^WT or BTK^C481S transduced TMD8 ABC-DLBCL cells, 6 hours (FIG. 6). The method, then: as §1, §2, §3
Assay [14] deals with Phospho-BTK (Tyr223). The experiment in a line: Western blot, Phospho-BTK (Tyr223). Particulars: vector only. The method, then: as §1, §2, §3
The mark [15] stands for this setting: MYD88 mutated BCWM.1 cells, 6 hours, Western blot (FIG. 4).

T2 sequence (Q06187 2-659): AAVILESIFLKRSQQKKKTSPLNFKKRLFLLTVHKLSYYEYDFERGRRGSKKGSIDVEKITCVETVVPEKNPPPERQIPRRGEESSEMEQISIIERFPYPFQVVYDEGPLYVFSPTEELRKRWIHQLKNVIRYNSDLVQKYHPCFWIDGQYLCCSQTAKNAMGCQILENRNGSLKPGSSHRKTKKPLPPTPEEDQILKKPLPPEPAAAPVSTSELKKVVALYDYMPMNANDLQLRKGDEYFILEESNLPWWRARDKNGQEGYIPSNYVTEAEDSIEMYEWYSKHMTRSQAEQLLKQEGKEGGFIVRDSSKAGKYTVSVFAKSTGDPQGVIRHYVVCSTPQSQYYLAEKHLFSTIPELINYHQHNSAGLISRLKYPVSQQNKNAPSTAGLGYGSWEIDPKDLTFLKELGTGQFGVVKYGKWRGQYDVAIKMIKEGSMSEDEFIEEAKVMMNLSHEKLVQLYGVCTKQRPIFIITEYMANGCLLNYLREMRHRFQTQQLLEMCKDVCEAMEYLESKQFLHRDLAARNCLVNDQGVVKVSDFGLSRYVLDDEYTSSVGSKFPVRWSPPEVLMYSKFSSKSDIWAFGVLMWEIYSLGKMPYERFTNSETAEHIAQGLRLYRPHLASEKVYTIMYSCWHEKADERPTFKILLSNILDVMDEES
T6 sequence (P06239 whole entry): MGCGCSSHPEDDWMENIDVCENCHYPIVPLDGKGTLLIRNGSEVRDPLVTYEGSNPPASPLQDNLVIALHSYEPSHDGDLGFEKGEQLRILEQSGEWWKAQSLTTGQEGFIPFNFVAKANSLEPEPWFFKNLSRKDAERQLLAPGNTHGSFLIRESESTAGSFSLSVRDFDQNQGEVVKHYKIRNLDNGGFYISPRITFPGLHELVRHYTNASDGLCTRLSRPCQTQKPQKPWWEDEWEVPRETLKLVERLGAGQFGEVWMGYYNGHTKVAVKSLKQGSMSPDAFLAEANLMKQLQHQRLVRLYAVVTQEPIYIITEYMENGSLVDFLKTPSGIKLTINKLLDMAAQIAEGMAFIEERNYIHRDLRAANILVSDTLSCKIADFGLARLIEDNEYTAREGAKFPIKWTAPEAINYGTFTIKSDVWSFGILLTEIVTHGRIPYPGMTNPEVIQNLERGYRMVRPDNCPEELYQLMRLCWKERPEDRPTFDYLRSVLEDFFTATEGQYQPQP
T5 sequence (P51451 whole entry): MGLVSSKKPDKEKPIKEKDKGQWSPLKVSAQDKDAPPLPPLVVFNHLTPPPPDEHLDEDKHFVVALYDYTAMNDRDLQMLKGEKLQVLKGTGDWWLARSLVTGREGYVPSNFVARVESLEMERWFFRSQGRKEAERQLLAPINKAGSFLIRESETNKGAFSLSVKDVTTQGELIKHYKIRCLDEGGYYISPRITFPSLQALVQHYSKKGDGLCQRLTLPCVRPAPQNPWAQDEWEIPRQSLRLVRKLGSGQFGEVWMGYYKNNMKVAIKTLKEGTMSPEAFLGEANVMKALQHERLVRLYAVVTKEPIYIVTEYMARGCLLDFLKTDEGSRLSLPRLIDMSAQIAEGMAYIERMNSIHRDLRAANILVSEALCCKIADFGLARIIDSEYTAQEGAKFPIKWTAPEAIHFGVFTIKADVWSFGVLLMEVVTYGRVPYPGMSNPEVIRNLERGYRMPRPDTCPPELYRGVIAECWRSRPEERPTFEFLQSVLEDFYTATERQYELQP
T9 sequence (P42684 whole entry): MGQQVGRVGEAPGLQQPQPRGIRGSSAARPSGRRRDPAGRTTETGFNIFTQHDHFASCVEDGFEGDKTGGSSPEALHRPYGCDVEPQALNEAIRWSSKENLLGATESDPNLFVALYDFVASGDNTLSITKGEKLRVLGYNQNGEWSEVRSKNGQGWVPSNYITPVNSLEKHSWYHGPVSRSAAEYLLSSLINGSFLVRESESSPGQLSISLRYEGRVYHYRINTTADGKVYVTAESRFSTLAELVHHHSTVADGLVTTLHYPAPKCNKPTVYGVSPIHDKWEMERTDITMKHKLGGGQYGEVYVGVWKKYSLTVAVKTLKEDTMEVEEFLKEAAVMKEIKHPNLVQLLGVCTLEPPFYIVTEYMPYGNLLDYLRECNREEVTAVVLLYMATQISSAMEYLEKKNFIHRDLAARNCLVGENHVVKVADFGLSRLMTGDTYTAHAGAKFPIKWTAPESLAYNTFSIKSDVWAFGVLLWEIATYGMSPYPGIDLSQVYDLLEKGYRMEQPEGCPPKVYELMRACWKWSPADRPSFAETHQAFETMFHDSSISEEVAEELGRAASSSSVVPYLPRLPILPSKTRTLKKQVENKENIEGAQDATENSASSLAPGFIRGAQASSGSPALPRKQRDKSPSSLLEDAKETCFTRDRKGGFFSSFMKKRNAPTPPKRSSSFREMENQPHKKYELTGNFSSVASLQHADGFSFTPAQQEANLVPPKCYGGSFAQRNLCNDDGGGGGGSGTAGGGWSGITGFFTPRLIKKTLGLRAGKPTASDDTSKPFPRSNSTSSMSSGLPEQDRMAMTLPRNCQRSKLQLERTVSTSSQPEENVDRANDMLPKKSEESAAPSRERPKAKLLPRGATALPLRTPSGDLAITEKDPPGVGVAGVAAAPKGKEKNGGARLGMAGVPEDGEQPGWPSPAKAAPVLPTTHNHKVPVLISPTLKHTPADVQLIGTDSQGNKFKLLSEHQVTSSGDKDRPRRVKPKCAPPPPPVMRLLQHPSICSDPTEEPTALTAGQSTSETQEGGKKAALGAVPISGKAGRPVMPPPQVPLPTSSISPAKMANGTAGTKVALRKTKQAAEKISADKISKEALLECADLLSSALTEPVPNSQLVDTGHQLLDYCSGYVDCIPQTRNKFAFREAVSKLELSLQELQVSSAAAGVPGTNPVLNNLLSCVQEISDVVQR
T10 sequence (P53667 whole entry): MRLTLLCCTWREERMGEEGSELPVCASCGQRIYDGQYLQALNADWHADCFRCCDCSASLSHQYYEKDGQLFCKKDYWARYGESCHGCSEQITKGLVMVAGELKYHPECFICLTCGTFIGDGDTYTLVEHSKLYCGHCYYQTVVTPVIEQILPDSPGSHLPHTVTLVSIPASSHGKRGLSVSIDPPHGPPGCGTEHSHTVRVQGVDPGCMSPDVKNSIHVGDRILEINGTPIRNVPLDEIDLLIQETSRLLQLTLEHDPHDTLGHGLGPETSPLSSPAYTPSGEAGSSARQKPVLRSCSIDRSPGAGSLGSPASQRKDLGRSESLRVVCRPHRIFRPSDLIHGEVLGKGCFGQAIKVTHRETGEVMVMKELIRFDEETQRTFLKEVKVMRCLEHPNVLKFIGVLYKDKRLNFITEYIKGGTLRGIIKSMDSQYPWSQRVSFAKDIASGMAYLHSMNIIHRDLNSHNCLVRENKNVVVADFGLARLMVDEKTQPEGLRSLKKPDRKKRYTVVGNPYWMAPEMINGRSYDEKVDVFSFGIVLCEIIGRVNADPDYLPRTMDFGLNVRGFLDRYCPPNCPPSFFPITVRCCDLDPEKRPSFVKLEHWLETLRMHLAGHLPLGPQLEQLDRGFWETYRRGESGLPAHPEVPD
T4 sequence (P12931 whole entry): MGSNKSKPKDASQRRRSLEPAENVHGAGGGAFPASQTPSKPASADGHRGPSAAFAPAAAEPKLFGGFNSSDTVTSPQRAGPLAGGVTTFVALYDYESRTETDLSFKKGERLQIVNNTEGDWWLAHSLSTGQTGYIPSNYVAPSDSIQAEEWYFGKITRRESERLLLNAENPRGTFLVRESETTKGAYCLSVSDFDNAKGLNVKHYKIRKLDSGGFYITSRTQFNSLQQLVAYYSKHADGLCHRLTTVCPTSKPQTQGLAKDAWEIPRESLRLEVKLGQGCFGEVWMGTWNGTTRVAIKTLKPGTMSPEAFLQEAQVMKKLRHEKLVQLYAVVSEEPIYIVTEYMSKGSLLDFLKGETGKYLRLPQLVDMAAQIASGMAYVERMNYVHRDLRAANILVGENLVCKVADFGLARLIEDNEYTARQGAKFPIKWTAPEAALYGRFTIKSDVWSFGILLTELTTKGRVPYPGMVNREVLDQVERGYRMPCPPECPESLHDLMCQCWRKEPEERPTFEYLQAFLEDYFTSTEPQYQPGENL
T7 sequence (P41240 whole entry): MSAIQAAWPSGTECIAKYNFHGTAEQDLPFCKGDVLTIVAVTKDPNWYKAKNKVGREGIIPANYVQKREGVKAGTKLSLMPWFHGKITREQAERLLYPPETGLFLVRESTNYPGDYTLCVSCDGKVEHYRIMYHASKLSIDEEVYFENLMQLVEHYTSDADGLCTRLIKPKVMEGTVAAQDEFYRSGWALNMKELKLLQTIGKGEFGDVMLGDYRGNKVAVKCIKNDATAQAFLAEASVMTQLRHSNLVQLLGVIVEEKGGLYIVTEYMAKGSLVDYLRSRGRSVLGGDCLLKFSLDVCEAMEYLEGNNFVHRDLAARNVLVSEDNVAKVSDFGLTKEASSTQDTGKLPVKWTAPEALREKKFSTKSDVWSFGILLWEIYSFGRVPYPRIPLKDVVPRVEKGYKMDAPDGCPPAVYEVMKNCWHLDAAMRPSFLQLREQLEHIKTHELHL
T3 sequence (P06241 whole entry): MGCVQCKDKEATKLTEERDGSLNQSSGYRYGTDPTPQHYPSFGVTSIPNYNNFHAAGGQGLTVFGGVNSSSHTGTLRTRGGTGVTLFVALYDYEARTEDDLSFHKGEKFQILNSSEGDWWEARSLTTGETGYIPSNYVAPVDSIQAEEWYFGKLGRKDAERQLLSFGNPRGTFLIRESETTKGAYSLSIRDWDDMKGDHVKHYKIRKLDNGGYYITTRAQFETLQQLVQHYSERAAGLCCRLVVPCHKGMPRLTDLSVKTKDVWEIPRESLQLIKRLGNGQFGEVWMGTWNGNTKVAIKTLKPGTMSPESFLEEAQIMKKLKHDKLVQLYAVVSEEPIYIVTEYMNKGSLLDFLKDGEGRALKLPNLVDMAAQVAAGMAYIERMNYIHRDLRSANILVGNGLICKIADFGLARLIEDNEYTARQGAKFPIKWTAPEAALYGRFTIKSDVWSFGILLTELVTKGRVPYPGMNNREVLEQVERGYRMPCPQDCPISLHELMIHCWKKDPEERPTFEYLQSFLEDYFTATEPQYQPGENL

As to `Nc1ncnc2c1c(-c1ccc(Oc3ccccc3)cc1)nn2C1CCC(N2CCN(CCOCCNC(=O)CNc3cccc4c3C(=O)N(C3CCC(=O)NC3=O)C4=O)CC2)CC1` (stereo not drawn) [SB1-G-181-P1], in [1] (setting [15]), the “degradation of HCK” value was “effective degradation”. Moreover, the “degradation of BTK” value in assay [2] is recorded as “effective degradation”.
Regarding `Nc1ncnc2c1c(-c1ccc(Oc3ccccc3)cc1)nn2[C@H]1CC[C@H](N2CCN(CCOCCOCCOCCNC(=O)CNc3cccc4c3C(=O)N(C3CCC(=O)NC3=O)C4=O)CC2)CC1` (stereo partly drawn) [SB1-G-182-P1], the “degradation of HCK” value in assay [1] (setting [15]) was “effective degradation”. Moreover, the “degradation of BTK” value in assay [2] is on record as “effective degradation”.
Regarding `Nc1ncnc2c1c(-c1ccc(Oc3ccccc3)cc1)nn2[C@H]1CC[C@H](N2CCN(CCCCCCNC(=O)COc3cccc4c3C(=O)N(C3CCC(=O)NC3=O)C4=O)CC2)CC1` (stereo partly drawn) [SB1-G-200], the “degradation of FYN (proteomics)” value in assay [3] is given as “degraded”. In addition, the “degradation of SRC (proteomics)” value in assay [4] is listed as “degraded”. For the same compound, in assay [5], the “degradation of BLK (proteomics)” value is given as “degraded”. Besides, the “degradation of LCK (proteomics)” value in assay [6] was “degraded”. The “degradation of CSK (proteomics)” value in assay [7] was “degraded”. Besides, in assay [8], the “degradation of ABL1 (proteomics)” value is given as “degraded”. In addition, in [9], the “degradation of ABL2 (proteomics)” value was “degraded”. For the same compound, the “degradation of LIMK1 (proteomics)” value in assay [10] is recorded as “degraded”. The “degradation of LATS1 (proteomics)” value in [11] is reported as “degraded”.
With `Nc1ncnc2c1c(-c1ccc(Oc3ccccc3)cc1)nn2[C@H]1CC[C@H](N2CCN(CCOCCNC(=O)CNc3cccc4c3C(=O)N(C3CCC(=O)NC3=O)C4=O)CC2)CC1` (stereo partly drawn) [SB1-G-181, N-(2-(2-(4-((1r,4r)-4-(4-amino-3-(4-phenoxyphenyl)-1H-pyrazolo[3,4-d]pyrimidin-1-yl)cyclohexyl)piperazin-1-yl)ethoxy)ethyl)-2-(2-(2,6-dioxopiperidin-3-yl)-1,3-dioxoisoindolin-4-ylamino)acetamide], in assay [3], the “degradation of FYN (proteomics)” value is “degraded”. In addition, the “degradation of SRC (proteomics)” value in assay [4] is given as “degraded”. Moreover, in [5], the “degradation of BLK (proteomics)” value is “degraded”. Besides, the “degradation of LCK (proteomics)” value in assay [6] is on record as “degraded”. The “degradation of CSK (proteomics)” value in assay [7] was “degraded”. Besides, the “degradation of ABL1 (proteomics)” value in [8] is “degraded”. For the same compound, the “degradation of ABL2 (proteomics)” value in assay [9] was “degraded”. Moreover, the “degradation of LIMK1 (proteomics)” value in assay [10] was “degraded”. For the same compound, the “degradation of LATS1 (proteomics)” value in [11] is “degraded”.
As to `Nc1ncnc2c1c(-c1ccc(Oc3ccccc3)cc1)nn2[C@H]1CC[C@H](N2CCN(CCOCCOCCNC(=O)CNc3cccc4c3C(=O)N(C3CCC(=O)NC3=O)C4=O)CC2)CC1` (stereo partly drawn) [SB1-G-185-P1], the “degradation of HCK” value in assay [1] (setting [15]) is reported as “effective degradation”; in assay [1] (vector only, BTK^WT or BTK^C481S transduced BCWM.1 WM cells, 6 hours (FIG. 5)), “effective degradation”; in assay [1] (vector only, BTK^WT or BTK^C481S transduced TMD8 ABC-DLBCL cells, 6 hours (FIG. 6)), “effective degradation”. In addition, the entries for the “degradation of BTK” value in assay [2], in assay [12] and in assay [13] were “effective degradation”, “diminished” and “effective degradation”, respectively. The “BTK phosphorylation at Tyr-223” value in assay [14] (BTK^WT or BTK^C481S transduced BCWM.1 WM cells, 6 hours (FIG. 5)) is “blocked”; in assay [14] (BTK^WT or BTK^C481S transduced TMD8 ABC-DLBCL cells, 6 hours (FIG. 6)), “blocked”.
